One compound from patent US6503909B1, “Pyrazine compounds” (SmithKline Beecham Corporation, priority 1998, dated 2003) can be followed below.

By ED50 is commonly meant the midpoint of the dose-response relation.

The data set concerns male Han Wistar rats. Kind of data set: rat maximal electroshock test (MES). It counts as in vivo. Here is the method:
For example, male Han Wistar rats (150-200 grms) were dosed i.p. with a suspension of the test compound in 0.25% methylcellulose 2 hr prior to test. A visual observation was carried out just prior to testing for the presence of ataxia. Using auricular electrodes a current of 200 mA, duration 300 millisec, was applied and the presence or absence of hind limb extension noted.
A general note: The maximal electroshock test induces tonic seizures with an electrical stimulus.

In the case of `Nc1nnc(-c2cccc(Cl)c2Cl)c(N)n1` [lamotrigine], for the setting “Rattus norvegicus, ip, dosed i.p. as suspension in 0.25% methylcellulose 2 hr prior to test, 200 mA, 300 millisec, auricular electrodes, read-out: ED50 (MES, hind limb extension)”, the median effective dose (ED50) was 6.1 mg/kg. Besides, the “therapeutic index (ratio of the ataxia ED50 and MES ED50)” value (i.p., 2 hr prior to test, ataxia by visual observation) is reported as 3.3.
